One series has as its system DIO mice. The experiment in a line: Plasma hormone measurements and liver RT-PCR post-IPGTT. The format is in vivo, mouse. Here is the method: Trunk blood was obtained for plasma hormone measurements using the Multiplexed Mouse Metabolic Hormone panel (Milliplex, EMD Millipore) on a Luminex FlexMap 3D instrument. Gastric emptying was measured by dissection of stomachs 30 min after an oral glucose bolus (3.0 g/kg, 10 mL/kg) in sterile saline containing 0.1 mg/mL phenol red.
Total RNA was isolated from liver samples (˜100 mg) using TRIzol (Invitrogen) and purified using an RNeasy® kit (Qiagen) and on-column DNAse treatment (Qiagen). Reverse transcription was performed with oligo(dT) primers using SuperScript III (Life Technologies). RT-PCR was performed with two primer pairs per target normalized against tubulin and beta-actin transcripts (ΔΔCT method).
Blood collection and plasma hormone measurements. Blood was collected in EDTA-coated tubes (BD Microtainer®) from trunk bleeding (˜500 μL) after CO2-euthanasia for all hormone assays. The plasma was immediately separated from red blood cells by centrifugation 10 min at 1800 g, aliquoted, frozen over dry ice and stored at −80° C. […] Values are reported as mean±S.E.M. Statistics were performed using a two-tail Student's t-test, and significance levels shown in the figures are *p<0.05 versus vehicle control group or **p<0.01 versus vehicle control group.
RT-PCR analysis of liver gluconeogenesis markers phosphoenolpyruvate carboxykinase (PEPCK) and glucose-6-phosphatase (G6Pase). Total RNA was isolated from liver samples (˜100 mg) using TRIzol® reagent (Invitrogen, 1 mL/100 mg sample), followed by spin-column purification (RNeasy® kit, Qiagen) and on-column DNAse treatment (Qiagen) according to the manufacturer's instructions. RNA concentrations were determined by UV spectrophotometry (NanoDrop). One microgram of total RNA was used for reverse transcription with oligo(dT) primers (SuperScript® III First-Strand Synthesis SuperMix, Life Technologies) according to the manufacturer's instructions. Quantitative PCR reactions included 1 μL of cDNA diluted 1:100, 0.4 μM primers, 2× SYBR Green PCR Master Mix (Invitrogen) in 25 μL total volume, and were read out by a CFX96TM Real-Time PCR Detection System (BioRad). Transcript levels were determined using two known primer pairs^18,19 for each gene of interest (Table 6), which were normalized against tubulin and beta-actin transcripts (ΔΔCT method), and expressed relative to the lowest sample. Duplicate control assays without reverse transcriptase treatment were run for each RNA preparation and primer set used. Statistics were performed using a two-tail Student's t-test, and significance levels shown in the figures are *p<0.05 versus vehicle control group or **p<0.01 versus vehicle control group.

The target in another series is T1, hIDE WT (Homo sapiens, UniProt P14735).
T1 construct: The reported N-His6-tagged human IDE42-1019 construct; made in house; host or cells: E. coli Rosetta 2 (DE3) pLysS
T1 sequence (P14735 42-1019): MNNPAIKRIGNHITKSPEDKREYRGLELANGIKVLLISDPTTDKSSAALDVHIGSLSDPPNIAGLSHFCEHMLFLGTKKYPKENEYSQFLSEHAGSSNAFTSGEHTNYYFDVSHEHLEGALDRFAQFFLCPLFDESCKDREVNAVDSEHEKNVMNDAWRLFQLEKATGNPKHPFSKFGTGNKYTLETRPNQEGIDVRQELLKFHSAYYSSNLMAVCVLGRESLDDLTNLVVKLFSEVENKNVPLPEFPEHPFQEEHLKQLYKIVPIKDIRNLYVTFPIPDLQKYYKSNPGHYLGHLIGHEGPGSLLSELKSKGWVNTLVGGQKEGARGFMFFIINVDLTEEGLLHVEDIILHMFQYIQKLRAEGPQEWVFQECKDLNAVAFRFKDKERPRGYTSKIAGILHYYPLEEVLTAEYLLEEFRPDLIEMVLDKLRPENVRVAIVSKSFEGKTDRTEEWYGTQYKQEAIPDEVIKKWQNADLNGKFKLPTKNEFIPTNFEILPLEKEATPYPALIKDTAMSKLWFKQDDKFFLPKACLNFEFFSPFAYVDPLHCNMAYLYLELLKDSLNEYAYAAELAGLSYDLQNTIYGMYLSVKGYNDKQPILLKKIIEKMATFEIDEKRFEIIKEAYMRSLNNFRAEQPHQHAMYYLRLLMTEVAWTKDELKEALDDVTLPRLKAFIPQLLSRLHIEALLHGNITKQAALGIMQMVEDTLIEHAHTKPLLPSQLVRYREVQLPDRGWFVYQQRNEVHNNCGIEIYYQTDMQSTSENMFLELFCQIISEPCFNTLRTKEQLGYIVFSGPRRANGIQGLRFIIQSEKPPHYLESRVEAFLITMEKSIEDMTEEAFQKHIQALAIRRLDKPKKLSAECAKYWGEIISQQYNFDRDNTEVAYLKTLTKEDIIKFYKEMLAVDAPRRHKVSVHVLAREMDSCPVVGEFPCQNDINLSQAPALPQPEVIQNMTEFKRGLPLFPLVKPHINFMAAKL
Nature of the series: Small molecule-enzyme mutant complementation study, wild type. In kind it is biochemical. From the text: Protease assays with fluorogenic peptide substrates. […] All assay data points were obtained in duplicate.
Site-directed mutagenesis, expression, and purification of human IDE. The reported N-His6-tagged human IDE42-1019 construct was introduced in the expression plasmid pTrcHis-A (Invitrogen) using primers for uracil-specific excision reactions (USER) by Taq (NEB) and Pfu polymerases (PfuTurbo CX®, Agilent). The IDE gene was amplified with the primers 5′-[…]-dU-[…] and 5′-[…] G-dU-[…] (underlined sequences represent overhangs, and italics highlight the PCR priming sequence). Similarly, the pTrcHis-A vector was amplified for USER cloning with the primers 5′-[…] TGA-dU-[…] CCC and 5′-[…]-dU-[…]. Mutant IDE constructs were generated by amplifying the full vector construct with USER cloning primers introducing a mutant overhang (Table 5).
All PCR products were purified on microcentrifuge membrane columns (MinElute®, Qiagen) and quantified by UV absorbance (NanoDrop). Each fragment (0.2 pmol) was combined in a 10 μL reaction mixture containing 20 units DpnI (NEB), 0.75 units of USER mix (Endonuclease VIII and Uracil-DNA Glycosylase, NEB), 20 mM Tris-acetate, 50 mM potassium acetate, 10 mM magnesium acetate, 1 mM dithiothreitol at pH 7.9 (1× NEBuffer 4). The reactions were incubated at 37° C. for 45 min, followed by heating to 80° C. and slow cooling to 30° C. (0.2° C./s). The hybridized constructs were directly used for heat-shock transformation of chemically competent NEB turbo E. coli cells according to the manufacturer's instructions. Transformants were selected on carbenicillin LB agar, and isolated colonies were cultured overnight in 2 mL LB.
The plasmid was extracted using a microcentrifuge membrane column kit (Miniprep®, Qiagen), and the sequence of genes and vector junctions were confirmed by Sanger sequencing (Table 6). The plasmid constructs were transformed by heat-shock into chemically-competent expression strain Rosetta 2 (DE3) pLysS E. coli cells (EMD Millipore), and selected on carbenicillin/chloramphenicol LB agar. Cells transformed with IDE pTrcHis A constructs were cultured overnight at 37° C. in 2 XYT media (31 g in 1 L) containing 100 μg/mL ampicillin and 34 μg/mL chloramphenicol. Expression of His6-tagged IDE proteins was induced when the culture measured OD600 ˜0.6 by addition of isopropyl-β-D-1-thiogalactopyranoside (IPTG) to 1 mM final concentration, incubated overnight at 37° C., followed by centrifugation at 10,000 g for 30 min at 4° C.
Recombinant His6-tagged proteins were purified by Ni(II)-affinity chromatography (IMAC sepharose beads, GE Healthcare®) according to the manufacturer's instructions. The cell pellets were resuspended in pH 8.0 buffer containing 50 mM phosphate, 300 mM NaCl, 10 mM imidazole, 1% Triton X-100 and 1 mM tris(2-carboxyethyl)phosphine hydrochloride (TCEP), and were lysed by probe sonication for 4 min at 4° C., followed by clearing of cell debris by centrifugation at 10,000 g for 25 min at 4° C. The supernatant was incubated with Ni(II)-doped IMAC resin (2 mL) for 3 h at 4° C. The resin was washed twice with the cell resuspension/lysis buffer, and three times with pH 8.0 buffer containing 50 mM phosphate, 300 mM NaCl,50 mM imidazole and 1 mM TCEP. Elution was performed in 2 mL aliquots by raising the imidazole concentration to 250 mM and subsequently to 500 mM in the previous buffer. The fractions were combined and the buffer was exchanged to the recommended IDE buffer (R&D) using spin columns with 100 KDa molecular weight cut off membranes (Millipore). Protein yields were typically ˜10 μg/L, and >90% purity based on gel electrophoresis analysis (Coomassie stained).

The mark [1] stands for this setting: DIO liver, 135 min post-IPGTT, vs vehicle.
Setting [2] is: DIO mice, 20 minutes post-glucose injection, vs vehicle.

On to `NCCCC[C@@H]1NC(=O)/C=C/C(=O)N[C@H](C(N)=O)CCCCNC(=O)[C@@H](Cc2ccc(C(=O)c3ccccc3)cc2)NC(=O)[C@H](CC2CCCCC2)NC1=O` [Compound 6bK], for which, in the series with DIO mice (setting [1]), the “higher glucose-6-phosphatease (G6Pase) transcript levels” value came out at 50% and the “lower phosphoenolpyruvate carboxykinase (PEPCK) transcript levels” value was 30%. For the same compound, the “liver G6Pase expression” value with DIO mice (DIO mice post-IPGTT, vs control) is on record as “elevated”. In addition, in the series on DIO mice (setting [2]), the plasma amylin levels result is reported as “elevated”, the plasma glucagon levels entry is recorded as “unchanged” and the plasma insulin levels result is given as “elevated”. For the same compound, the plasma glucagon levels entry with DIO mice (DIO mice, 130 min post-injection, hyperglycemic rebound) is on record as “above 200 pg/mL”.
As for `NC(=O)CCC1NC(=O)C=CC(=O)NC(C(N)=O)CCCCNC(=O)C(Cc2ccc(C(=O)c3ccccc3)cc2)NC(=O)C(CC2CCCCC2)NC1=O` (stereo not shown) [Compound 6b], the IC50 shift on hIDE WT (batch 1 (reference)), on hIDE WT (batch 2 (reference)) and at hIDE WT (batch 3 (reference)) was 1.0 fold in each case.
